Like-named read-outs stand apart in the source and are kept apart here.
Experiments:
Assay type in all cases: cell-based
[1] = tested on: SMMC-7721 (human hepatoma cells); assay: MTT inhibition of tumor cell growth, SMMC-7721; conditions: Homo sapiens, SMMC-7721, 48 h
Method: (§1) 1. Inoculating cells: the culture medium DMEM or RMPI1640 containing 10% fetal bovine serum was used to prepare a single cell suspension, and the cell suspension was inoculated to a 96-well plate at 5000-10000 cells per well (100 μl for each well); Adherent cells were inoculated and cultured for 12 h in advance. HL-60 (human promyelocytic leukemia cells), SMMC-7721 (human hepatoma cells), A-549 (Human lung adenocarcinoma cells), MCF-7 (human breast cancer cells), SW-480 (human colon cancer cells) were purchased from the Cell Bank of the Chinese Academy of Sciences, Shanghai.
(§2) 2. The solution of the compound to be tested (40 μM for primary screening; 5 concentrations were set for gradient re-screening for the compounds which achieve about 50% inhibition of tumor cell growth at 40 μM) was added, the final volume of each well was 200 μl, and triplicate wells were set for each test.
(§3) 3. Coloration: After culturing at 37° C. for 48 h, MTT solution (20 μl) was added to each well. After incubation for another 4 h, the culture was stopped. The supernatant in each well was pipetted and discarded, and 200 μl SDS solution (10%) was added to each well. Incubation was performed overnight (at 37° C.), to completely dissolve the crystal.
(§4) 4. Colorimetric assay: ELISA Reader (Bio-Rad 680) was used to obtain the light absorption for each well at a wavelength of 595 nm, the results were recorded. A cell growth curve was plotted with the concentration as abscissa and the cell survival percentage as ordinate. The two-point method (Reed and Muench method) was used to calculate the IC50 of the compound.

[2] = tested on: HL-60 (human promyelocytic leukemia cells); assay: MTT inhibition of tumor cell growth, HL-60; conditions: Homo sapiens, HL-60, 48 h
Method: as §1, §2, §3, §4

[3] = tested on: A-549 (Human lung adenocarcinoma cells); assay: MTT inhibition of tumor cell growth, A-549; conditions: Homo sapiens, A549, 48 h
Method: as §1, §2, §3, §4

[4] = tested on: SW-480 (human colon cancer cells); assay: MTT inhibition of tumor cell growth, SW-480; conditions: Homo sapiens, SW480, 48 h
Method: as §1, §2, §3, §4

[5] = tested on: Wnt signaling pathway (Top-Flash reporter gene); assay: Top-Flash Wnt reporter gene assay in HEK293T cells with Wnt3a conditioned medium; conditions: Homo sapiens, HEK-293T, 6 h, HEK293T, Wnt3a conditioned medium, 6 h
Method: HEK293T cells were cultured in DMEM containing 10% fetal bovine serum (Invitrogen) at 37° C., 5% CO2. The cells were passaged every other day. The density was retained at 70˜80% during passage. L cell line (CRL-2647, purchased from the gene bank of ATCC, the US) and the control cell line (CRL-2648, purchased from ATCC, US), which stably secreted mouse Wnt3a protein, were cultured in DMEM containing 50 ug/ml G418 and 10% fetal bovine serum, at 37° C., 5% CO2. When the cells grew to a density of about 70%, the medium was replaced with DMEM containing 10% fetal bovine serum. After continuous culture for 4 days, the culture was collected and centrifuged, and the supernatant was kept so that the Wnt conditioned medium was obtained. After titration assay, the conditioned medium was quick-frozen in liquid nitrogen, and placed at −80° C. for long-term storage, so that the titer was kept unchanged.
The cells were seeded to a 48-well plate at a density of […] cells per well, and transfected 20 h later. The reagents for plasmid transfection were calculated based on the amount in each well of the 48-well plate as following: the total amount of plasmid was 125 ng/well; the plasmid was first added to a serum-free medium (25 μL/well) and mixed well; PLUS reagent (Invitrogen) was then added in an amount of 0.5 μL/well and mixed well, then stood for 15 min; Lipofectamine (Invitrogen) liposome was added in an amount of 0.5 μL/well to serum-free DMEM medium (25 μL/well), and then mixed with the solution containing the plasmid and the PLUS, and stood for 15 min. The cells were cultured in serum-free DMEM medium (100 μL/well), and the final mixture of plasmid, PLUS and Lipofectamine were added to the cells. After incubation for 3 h, the transfection was stopped by the medium containing 10% fetal bovine serum (200 μL/well).
The HEK293T cells used for activity assay of the report gene were transfected by the method as shown in 2). Activity assay of Wnt reporter gene: the amount of plasmid for transfection was 5 ng/well for TOP-flash and 5 ng/well for GFP plasmid as internal standard, with lacZ added to reach a total amount of 125 ng/well. […] After treating for 6 h, Boehringer Mannheim Luci-ferase Assay Kit was used to lyse cells (200 μL/well). 50 μL from each well was pipetted into a 96-well plate. The indensity of GFP protein in the cell lysate was measured by fluorimeter FL600 (BIO-TEK Inc. Winooski, Vt.), and taken as internal standard for cell transfection efficiency. 10 μL substrate of luciferase was then added to each well, and the activity of luciferase was measured by Micro Lumate Plus (Perkin Elmer Inc. Wellesley, Mass.) luminometer. Finally, GFP indensity was used as internal standard to calibrate the activity of luciferase, i.e. the activity of Wnt reporter gene.
Calculation of IC50 (taking the calculation of IC50 of the Wnt signaling pathway for example): background (the activity as measured in the groups treated with a conditioned medium containing DMSO only) was subtracted from the reporter gene activity as measured in the groups treated by Wnt3a conditioned medium with or without the compound to be tested at different concentrations; and the obtained value was defined as the activity of the reporter gene induced by Wnt or the residual activity of the reporter gene after adding the compound to be tested. The residual activity was normalized by the activity induced by Wnt to get the relative residual activity. Then combine with the concentrations of the compound to be tested to plot a linear graph, and a dose-effect curve was fitted based on 4-parameter logistic fit. IC50 of the Wnt signaling pathway is determined as the concentration at which the relative residual activity is 0.5.

[6] = tested on: MCF-7 (human breast cancer cells); assay: MTT inhibition of tumor cell growth, MCF-7; conditions: Homo sapiens, MCF7, 48 h
Method: as §1, §2, §3, §4

[7] = Table 4, derivatives obtained by reduction of the lactonic ring
[8] = Table 4, derivatives obtained by reduction of the lactonic ring, read-out: IC50 SW-480
[9] = Table 6, 7-carbonyl derivatives, read-out: IC50 SW-480, 7-carbonyl derivatives
[10] = Table 8, read-out: IC50 (μM), inhibitory activity on the Wnt signaling pathway
[11] = Table 1, 7-hydroxy derivatives of S-3
[12] = Table 1, 7-hydroxy derivatives of S-3, read-out: IC50 SW-480
[13] = Table 7 (second), derivatives modified on 7-hydroxyl of S-3, read-out: IC50 (μM), inhibitory activity on the Wnt signaling pathway
[14] = Table 2, derivatives having potential Michael reaction acceptor
[15] = Table 2, derivatives having potential Michael reaction acceptor, read-out: IC50 SW-480
[16] = Table 9, read-out: IC50(μM), inhibitory activity on the Wnt signaling pathway

In the case of `C=C1C(=O)C23CC[C@H]1CC2[C@]1(COC(C)=O)CCC[C@@](C)(COC(=O)c2cccs2)C1CC3=O` (some centres unmarked) [Compound 66], the IC50 [1, 7] is reported as 0.57 µM, the IC50 [2, 7] is reported as 0.71 µM and the IC50 [3, 7] is reported as 0.8 µM. It also gave an IC50 [4, 8] of 0.76 µM, an IC50 [4, 9] of 0.7 µM and an IC50 [5, 10] of 8.39 ± 0.63 µM. For the same compound, the IC50 [6, 7] was 0.89 µM.
`C=C1C(=O)C23CC[C@H]1CC2[C@@]12CCC[C@@](C)(COC1=O)C2C[C@H]3OC(=O)c1ccc(C(F)(F)F)cc1` (some centres unmarked) [Compound 1m] gave an IC50 [1, 11] of 2.65 µM, an IC50 [2, 11] of 0.89 µM and an IC50 [3, 11] of 1.73 µM. It also gave an IC50 [4, 12] of 2.19 µM, an IC50 [5, 13] of 19 ± 1.61 µM and an IC50 [6, 11] of 1.97 µM.
`C=C1C(=O)C23CC[C@H]1CC2[C@]1(COS(C)(=O)=O)CCC[C@@](C)(COS(C)(=O)=O)C1CC3=O` (some centres unmarked) [Compound 73a] gave an IC50 [1, 7] of 0.77 µM, an IC50 [2, 7] of 3.97 µM and an IC50 [3, 7] of 2.89 µM. For the same compound, the IC50 [4, 8] was 2.57 µM, the IC50 [4, 9] was 2.57 µM and the IC50 [5, 10] was 43 ± 5.35 µM. For the same compound, the IC50 [6, 7] was 2.36 µM.
For `C=C1C(=O)C23CC[C@H]1CC2[C@@]12CCC[C@@](C)(COC1=O)C2C[C@H]3OS(C)(=O)=O` (some centres unmarked) [Compound 1q], the IC50 [1, 11] was 10.5 µM, the IC50 [2, 11] was 5.15 µM and the IC50 [3, 11] was 4.17 µM. The IC50 [4, 12] was 3.43 µM, the IC50 [5, 13] was 15.1 ± 2.89 µM and the IC50 [6, 11] was 3.82 µM.
For `C=C1C(=O)[C@]23CC[C@H]1CC2[C@@]12CCC[C@@](C)(COC1=O)C2[C@H](CN1CCOCC1)C3=O` (some centres unmarked) [Compound 9], the IC50 [1, 14] was 3.53 µM, the IC50 [2, 14] was 4.43 µM and the IC50 [3, 14] was 2.8 µM. The IC50 [4, 15] was 7.77 µM, the IC50 [5, 16] was 8.56 ± 1.15 µM and the IC50 [6, 14] was 3.55 µM.
`C=C1C(=O)[C@@]23CC[C@@H](CC2[C@@]24CCC[C@@](C)(COC2=O)C14)C(=C)[C@@H]3O` (some centres unmarked) [Compound 16] showed an IC50 [1, 14] of 12 µM, an IC50 [2, 14] of 5.56 µM and an IC50 [3, 14] of 4.77 µM. It also gave an IC50 [4, 15] of 11.4 µM, an IC50 [5, 16] of 8.27 ± 1.24 µM and an IC50 [6, 14] of 3.09 µM.
In the case of `C=CC(=O)O[C@@H]1CC2[C@@]3(C)CCC[C@@]2(C(=O)OC3)C2C[C@@H]3CCC21C(=O)C3=C` (some centres unmarked) [Compound 1g], the IC50 [1, 11] is reported as 10.2 µM, the IC50 [2, 11] is reported as 6.86 µM and the IC50 [3, 11] is reported as 5.97 µM. For the same compound, the IC50 [4, 12] was 6.42 µM, the IC50 [5, 13] was 30 ± 2.22 µM and the IC50 [6, 11] was 5.85 µM.

Source: US10112918B2, “15-oxospiramilactone derivatives, preparation method and uses thereof” (Kunming Institute of Botany, The Chinese Academy of Sciences, priority 2013, dated 2018)
